Laboratory results reported in ChEMBL document CHEMBL5303573, “Mapping human microbiome drug metabolism by gut bacteria and their genes” (Nature, 2019).

Experiments:
[1] = The drug is tested on Providencia stuartii strain: ATCC25827 for biotransformation. The drug concentrations were measured before and after a 12-h incubation by liquid-chromatography-coupled mass spectrometry (LC–MS); conditions: 2 µM
[2] = bacteroides intestinalis, 12 h, 2 µM
Description: The drug is tested on Bacteroides intestinalis strain: DSM17393 for biotransformation. The drug concentrations were measured before and after a 12-h incubation by liquid-chromatography-coupled mass spectrometry (LC–MS)

[3] = segatella copri, 12 h, 2 µM
Description: The drug is tested on Prevotella copri strain: DSM18205 for biotransformation. The drug concentrations were measured before and after a 12-h incubation by liquid-chromatography-coupled mass spectrometry (LC–MS)

[4] = The drug is tested on Bifidobacterium longum subsp. Infantis strain: CCUG52486 for biotransformation. The drug concentrations were measured before and after a 12-h incubation by liquid-chromatography-coupled mass spectrometry (LC–MS); conditions: 2 µM
[5] = The drug is tested on Bacteroides sp. WH2 strain: WH2 for biotransformation. The drug concentrations were measured before and after a 12-h incubation by liquid-chromatography-coupled mass spectrometry (LC–MS); conditions: bacteroides sp. wh2, 12 h, 2 µM
[6] = The drug is tested on Anaerotruncus colihominis strain: DSM17241 for biotransformation. The drug concentrations were measured before and after a 12-h incubation by liquid-chromatography-coupled mass spectrometry (LC–MS); conditions: 2 µM
[7] = The drug is tested on Bacteroides pectinophilus strain: ATCC43243 for biotransformation. The drug concentrations were measured before and after a 12-h incubation by liquid-chromatography-coupled mass spectrometry (LC–MS); conditions: 2 µM
[8] = The drug is tested on Blautia luti strain: DSM14534 for biotransformation. The drug concentrations were measured before and after a 12-h incubation by liquid-chromatography-coupled mass spectrometry (LC–MS); type: ADME; parameters: dose 2 uM, timepoint 0 vs 12 hours; conditions: 2 µM
[9] = The drug is tested on Ruminococcus gnavus strain: ATCC29149 for biotransformation. The drug concentrations were measured before and after a 12-h incubation by liquid-chromatography-coupled mass spectrometry (LC–MS); conditions: mediterraneibacter gnavus, 2 µM
[10] = The drug is tested on Edwardsiella tarda strain: ATCC23685 for biotransformation. The drug concentrations were measured before and after a 12-h incubation by liquid-chromatography-coupled mass spectrometry (LC–MS); conditions: 2 µM
[11] = bacteroides fragilis, 12 h, 2 µM
Description: The drug is tested on Bacteroides fragilis strain: NCTC 9343 for biotransformation. The drug concentrations were measured before and after a 12-h incubation by liquid-chromatography-coupled mass spectrometry (LC–MS)

[12] = The drug is tested on Collinsella intestinalis strain: DSM13280 for biotransformation. The drug concentrations were measured before and after a 12-h incubation by liquid-chromatography-coupled mass spectrometry (LC–MS); conditions: 2 µM
[13] = bacteroides thetaiotaomicron, 12 h, 2 µM
Description: The drug is tested on Bacteroides thetaiotaomicron strain: 3731 for biotransformation. The drug concentrations were measured before and after a 12-h incubation by liquid-chromatography-coupled mass spectrometry (LC–MS)

[14] = anaerostipes sp., 12 h, 2 µM
Description: The drug is tested on Anaerostipes sp. strain: fecal isolate for biotransformation. The drug concentrations were measured before and after a 12-h incubation by liquid-chromatography-coupled mass spectrometry (LC–MS)

[15] = The drug is tested on Alistipes indistinctus strain: DSM22520 for biotransformation. The drug concentrations were measured before and after a 12-h incubation by liquid-chromatography-coupled mass spectrometry (LC–MS); conditions: 2 µM
[16] = The drug is tested on Bacteroides dorei strain: DSM17855 for biotransformation. The drug concentrations were measured before and after a 12-h incubation by liquid-chromatography-coupled mass spectrometry (LC–MS); conditions: phocaeicola dorei, 2 µM
[17] = The drug is tested on Bacteroides fragilis strain: HMW610 for biotransformation. The drug concentrations were measured before and after a 12-h incubation by liquid-chromatography-coupled mass spectrometry (LC–MS); conditions: 2 µM
[18] = The drug is tested on Clostridium sp. strain: fecal isolate for biotransformation. The drug concentrations were measured before and after a 12-h incubation by liquid-chromatography-coupled mass spectrometry (LC–MS); conditions: 2 µM
[19] = parabacteroides distasonis, 12 h, 2 µM
Description: The drug is tested on Parabacteroides distasonis strain: ATCC8503 for biotransformation. The drug concentrations were measured before and after a 12-h incubation by liquid-chromatography-coupled mass spectrometry (LC–MS)

SMILES | Bacterial Biotransformation [1] | Bacterial Biotransformation [2] | Bacterial Biotransformation [3] | Bacterial Biotransformation [4] | Bacterial Biotransformation [5] | Bacterial Biotransformation [6] | Bacterial Biotransformation [7] | Bacterial Biotransformation [8] | Bacterial Biotransformation [9] | Bacterial Biotransformation [10] | Bacterial Biotransformation [11] | Bacterial Biotransformation [12] | Bacterial Biotransformation [13] | Bacterial Biotransformation [14] | Bacterial Biotransformation [15] | Bacterial Biotransformation [16] | Bacterial Biotransformation [17] | Bacterial Biotransformation [18] | Bacterial Biotransformation [19]
CN1CCC(OC(c2ccccc2)c2ccccc2)CC1 | Compound NOT metabolized | Compound NOT metabolized | Compound NOT metabolized | Compound NOT metabolized | Compound NOT metabolized | Compound NOT metabolized | Compound NOT metabolized | Compound NOT metabolized | Compound NOT metabolized | Compound NOT metabolized | Compound NOT metabolized | Compound NOT metabolized | Compound NOT metabolized | Compound NOT metabolized | Compound NOT metabolized | Compound NOT metabolized | – | – | –
CN1[C@@H]2CC[C@H]1C[C@@H](OC(=O)C(CO)c1ccccc1)C2 (stereo partly specified) [ATROPINE] | – | Compound NOT metabolized | Compound NOT metabolized | Compound NOT metabolized | Compound NOT metabolized | Compound NOT metabolized | Compound NOT metabolized | Compound NOT metabolized | Compound NOT metabolized | – | Compound NOT metabolized | Compound NOT metabolized | – | – | Compound NOT metabolized | Compound NOT metabolized | Compound NOT metabolized | – | –
Br.COc1ccc2c(c1)[C@]13CCCC[C@@H]1[C@H](C2)N(C)CC3.O [DEXTROMETHORPHAN HYDROBROMIDE] | Compound NOT metabolized | Compound NOT metabolized | – | Compound NOT metabolized | Compound NOT metabolized | Compound NOT metabolized | Compound NOT metabolized | Compound NOT metabolized | Compound NOT metabolized | Compound NOT metabolized | Compound NOT metabolized | Compound NOT metabolized | – | Compound NOT metabolized | Compound NOT metabolized | Compound NOT metabolized | – | Compound NOT metabolized | –
CCN(CC)CCOC(=O)C1(C2CCCCC2)CCCCC1 [DICYCLOMINE] | – | – | Compound NOT metabolized | – | Compound NOT metabolized | Compound NOT metabolized | Compound NOT metabolized | Compound NOT metabolized | Compound NOT metabolized | – | Compound NOT metabolized | Compound NOT metabolized | Compound NOT metabolized | Compound NOT metabolized | Compound NOT metabolized | Compound metabolized | Compound NOT metabolized | – | Compound metabolized
O=C(Nc1ccccc1)OCC(CN1CCCCC1)OC(=O)Nc1ccccc1 (stereo unspecified) [DIPERODON] | Compound NOT metabolized | Compound NOT metabolized | Compound NOT metabolized | Compound NOT metabolized | Compound NOT metabolized | Compound NOT metabolized | Compound NOT metabolized | Compound NOT metabolized | Compound NOT metabolized | Compound NOT metabolized | Compound NOT metabolized | Compound NOT metabolized | Compound NOT metabolized | Compound NOT metabolized | Compound NOT metabolized | Compound NOT metabolized | Compound NOT metabolized | – | –
O=C(CCCN1CCC(O)(c2ccc(Cl)cc2)CC1)c1ccc(F)cc1 [HALOPERIDOL] | Compound NOT metabolized | Compound NOT metabolized | Compound NOT metabolized | Compound NOT metabolized | Compound NOT metabolized | – | Compound NOT metabolized | Compound NOT metabolized | Compound NOT metabolized | Compound NOT metabolized | Compound NOT metabolized | Compound NOT metabolized | Compound NOT metabolized | Compound NOT metabolized | Compound NOT metabolized | Compound NOT metabolized | Compound NOT metabolized | – | –
CC1Cc2ccccc2N1NC(=O)c1ccc(Cl)c(S(N)(=O)=O)c1 (stereo unspecified) [INDAPAMIDE] | – | Compound NOT metabolized | Compound NOT metabolized | Compound NOT metabolized | Compound NOT metabolized | – | Compound NOT metabolized | Compound NOT metabolized | Compound NOT metabolized | Compound NOT metabolized | Compound NOT metabolized | Compound NOT metabolized | Compound NOT metabolized | Compound NOT metabolized | Compound NOT metabolized | Compound NOT metabolized | – | Compound NOT metabolized | Compound NOT metabolized
Cc1cc2c(s1)Nc1ccccc1N=C2N1CCN(C)CC1 [OLANZAPINE] | – | Compound NOT metabolized | Compound NOT metabolized | Compound NOT metabolized | – | Compound NOT metabolized | Compound NOT metabolized | Compound NOT metabolized | Compound NOT metabolized | Compound NOT metabolized | Compound NOT metabolized | Compound NOT metabolized | Compound NOT metabolized | Compound NOT metabolized | Compound NOT metabolized | Compound NOT metabolized | Compound metabolized | – | Compound NOT metabolized
CCCN1C[C@H](CSC)C[C@@H]2c3cccc4[nH]cc(c34)C[C@H]21.CS(=O)(=O)O [PERGOLIDE MESYLATE] | Compound NOT metabolized | Compound NOT metabolized | Compound NOT metabolized | Compound NOT metabolized | Compound NOT metabolized | Compound NOT metabolized | Compound NOT metabolized | Compound NOT metabolized | Compound NOT metabolized | – | Compound NOT metabolized | Compound NOT metabolized | Compound NOT metabolized | Compound NOT metabolized | Compound NOT metabolized | Compound NOT metabolized | – | Compound NOT metabolized | –
N#Cc1ccc2c(c1)N(CCCN1CCC(O)CC1)c1ccccc1S2 [PERICIAZINE] | – | Compound NOT metabolized | Compound NOT metabolized | Compound NOT metabolized | Compound NOT metabolized | Compound NOT metabolized | Compound NOT metabolized | Compound NOT metabolized | Compound NOT metabolized | Compound NOT metabolized | Compound NOT metabolized | Compound NOT metabolized | Compound metabolized | Compound NOT metabolized | Compound metabolized | Compound metabolized | Compound metabolized | – | Compound metabolized
